Assays:
Streptomyces spp. = test: Decolorization of naphthol azo dyes by Streptomyces spp.; type: cell-based
Description: (§1) Microbiol., 1984, 130:2905-2913.
(§2) Replicate sterile controls also were run in each experiment.

[1] = test system: Phanerochaete chrysosporium; test: Substrate removal / decolorization by P. chrysosporium culture; type: cell-based; conditions: for % Decolorization, P. chrysosporium: 14 days
Protocol: Environ. Microbiol., 1981, 42:290-296), with the addition of 75 mg adenine (6-aminopurine) and 27 mg L-phenylalanine-per-liter. This addition accelerated the growth of the fungus without inhibiting ligninase activity. […] […] Cultures were incubated at 37° C. for 7 to 15 days with shaking (250 rpm). Solid agar media were also employed.

[2] = test system: Streptomyces chromofuscus; test: Mineralization of 14C-labeled dyes by shaken cultures; type: cell-based; conditions: for Percentage of radioactivity recovered in CO2, Streptomyces chromofuscus / Percentage of radioactivity recovered in biomass (cells), Streptomyces chromofuscus / Percentage of radioactivity removed from the medium, Streptomyces chromofuscus: 21 days' growth, 50 mg/liter
Protocol: (§3) Agitated cultures containing 100,000 to 150,000 dpm of azo dye at a concentration of 200 mg/liter for P. chrysosporium and 50 mg/liter for S. chromofuscus were incubated at 37° C. for 20 days with shaking at 200 rpm. For each mineralization experiment six replicates-per-culture were run for P. chrysosporium and three replicates-per-culture for S. chromofuscus. Each culture flask contained a CO2 trap consisting of a small glass cup connected to the bottom of the rubber stopper. The cup contained 1 ml of 1N NaOH. Samples were taken every 2 days, and after each sampling cultures were flushed with 100% oxygen for 30 s. At the sampling time, the stopper was removed and the NaOH containing trapped CO2 was transferred to a 20-ml scintillation vial, and the cup was then rinsed twice with 1 ml of water. Two ml of rinse water were also transferred to the vial. Finally, 10 ml of Ecolite scintillation cocktail (ICN Biochemicals Inc., Irvine, Calif.) were added to each vial. Vials, after mixing, were stored in the dark for 24 h. The cpm of trapped radioactivity was then determined in a Packard Tri-Carb liquid scintillation analyzer, Model 1500, using the ^14 C quench standards and SIS numbers.
(§4) The removal of radioactivity from the media was determined by measuring the amount of ^14 C label in 0.1 ml of the medium at time 0 and 21 days for each culture. Uninoculated cultures were used as evaporation controls. […] At the end of each mineralization experiment, culture broths were acidified with 5 ml of 1M H3 PO4, fresh 1N NaOH was added to the trap, and the cultures were shaken overnight. No additional releases of ^14 CO2 were observed. The radioactivity assimilated by the cells was measured by solubilizing biomass harvested from each 21-day-old culture in an equal volume of hyamine hydroxide solution. Before solubilization, cells were washed three times with 50 ml of distilled water to remove adsorbed dyes. Ecolite 10 ml was added to the mixture, which was vortexed vigorously. To increase counting efficiency, the solution of biomass-hyamine-scintillation cocktail was further diluted 10 to 20 times with fresh Ecolite before counting.

Mn(II)-peroxidase [3] = test: Oxidation of dyes by P. chrysosporium Mn(II)-peroxidase; type: biochemical, Phanerochaete chrysosporium; conditions: for Oxidation by manganese peroxidase: 15-minute incubation period
ligninase = test: Oxidation of dyes by P. chrysosporium ligninase (crude preparation); type: biochemical, Phanerochaete chrysosporium; conditions: for Oxidation / decolorization by ligninase: pH3, 0.2 mM hydrogen peroxide, 15-minute incubation
Method in brief: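 Crude P. chrysosporium ligninase oxidation of dyes, assayed by a previously reported method; conditions as for acid yellow 9, readings every 30 s for up to 15 minutes.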

P. chrysosporium = test: Mineralization of 14C-labeled dyes by shaken cultures; type: cell-based, Phanerochaete chrysosporium; conditions: for Percentage of radioactivity recovered in biomass (cells), P. chrysosporium / Percentage of radioactivity removed from the medium, P. chrysosporium / Percentage of radioactivity recovered in CO2, P. chrysosporium: 21 days' growth, 200 mg/liter
Protocol: as §3
Either a charcoal-containing polyurethane sponge (Bio-Rad Laboratories, Richmond, Calif.) or 2-methoxyethanol was used to trap volatile organic compounds released during mineralization experiments. The sponge (1 cm^3) replaced the 1N NaOH solution in the small glass cap attached to the rubber stopper; other conditions were as before for the ^14 CO2 experiments. For scintillation counting, the charcoal sponges were dissolved in 1 ml of hyamine hydroxide contained in scintillation vials (1M solution in methanol; NEN Research Products, Boston, Mass.) held at 55° C. for 2 h. Ten ml of Ecolite scintillation cocktail were then added and the cpm was measured.
In the second procedure, cultures with CO2 traps were flushed with oxygen for 10 min, and the organic volatiles present were trapped in 10 ml of 2-methoxyethanol mixed with 10 ml Ecolite.
as §4

S. chromofuscus A11 = conditions: streptomyces chromofuscus a11 culture, 336 h
Protocol: as §1, §2
The Streptomyces were grown on the same media and under the same conditions as previously described. […] Thus, the spectrophotometric assays for substrates 1-12 were carried out at their specific isobastic points. Degradation was calculated as percent of substrates removed from culture broth, considering the evaporation factor (around 10%).

S. viridosporus T7A = conditions: streptomyces viridosporus t7a culture, 336 h
Protocol: (§5) Each Streptomyces species was grown in a cotton-plugged 250 ml flask containing 25 ml of the following medium: 0.2M Tris buffer (pH 7.6), 100 ml; vitamin-free Casamino acids (Difco), 1.0 g; thiamine, 100 μg; biotin, 100 μg; D-glucose, 2 g; deionized water, 900 ml.
The dyes were filter-sterilized and added at 0.005% (w/v) to the autoclaved basal medium. Alternatively, azo dye stock solutions were sterilized by filtration (pore size 0.2 μm) and added to autoclaved basal medium at concentrations of 50 or 100 ppm. Three replicates of every culture were incubated, and each strain was grown in media supplemented individually with every substrate. Replicate sterile controls also were run in each experiment. […] Three replicates for each strain growth were incubated in only the basal medium as well.
A one ml sample of culture medium was centrifuged and then diluted 2.5-5.0 fold (actinomycete culture) or 5- to 10-fold (fungal culture) with distilled water. Alternatively, 1.0 ml of fungal supernatant was centrifuged and diluted 5-fold with 10 mM sodium 2,2-dimethylsuccinate buffer (DMS) of pH 4.5. […] To be certain that changes in substrate spectra were not due to pH variations, the effects of pH on the visible absorption of each compound were also assayed within physiological pH range in the culture media. While the spectra of sulfanilic acid (Max abs at 250 nm), vanillic acid (Max abs at 252 nm and 286 nm) and acid yellow 9 (Max abs at 336 nm) were unaffected by pH over the tested pH range, the spectra of several novel azo dyes were changed as evidenced by shifts of their Absmax. Thus, the spectrophotometric assays for the dyes were typically carried out at their isobestic points. […] Spectrophotometric measurements were carried out at the absorbance maxima for azo dyes 16, 17, 18, 19, 31, and 32 (See Table 1 below). […] The compounds were quantified by first developing standard curves of absorbance versus concentrations (0-50 μg) and then comparing measured absorbance values to the standard curves.

S. rochei A14 = type: cell-based; conditions: streptomyces rochei a14 culture, 336 h
Description: as §1, §2

S. diastaticus A12 = type: cell-based; conditions: streptomyces diastaticus a12 culture, 336 h
Description: as §1, §2

S. rochei A10 = type: cell-based; conditions: streptomyces rochei a10 culture, 336 h
Description: as §1, §2

S. diastaticus A13 = type: cell-based; conditions: streptomyces diastaticus a13 culture, 336 h
Description: as §1, §2

S. badius 252 = type: cell-based; conditions: streptomyces badius 252 culture, 336 h
Description: as §1, §2

S. chromofuscus A20 = conditions: streptomyces chromofuscus a20 culture, 336 h
Protocol: as §5
The dyes were filter-sterilized and added at 0.005% (w/v) to the autoclaved basal medium. Alternatively, azo dye stock solutions were sterilized by filtration (pore size 0.2 μm) and added to autoclaved basal medium at concentrations of 50 or 100 ppm. Three replicates of every culture were incubated, and each strain was grown in media supplemented individually with every substrate. Replicate sterile controls also were run in each experiment. Cultures were incubated at 37° C. for 14 days with shaking (200-250 rpm). Three replicates for each strain growth were incubated in only the basal medium as well.
A one ml sample of culture medium was centrifuged and then diluted 2.5-5.0 fold (actinomycete culture) or 5- to 10-fold (fungal culture) with distilled water. Alternatively, 1.0 ml of fungal supernatant was centrifuged and diluted 5-fold with 10 mM sodium 2,2-dimethylsuccinate buffer (DMS) of pH 4.5. Azo dye substrate present was then measured spectrophotometrically with a Hewlett-Packard 8452 diode array spectrophotometer operated by a PC Vectra computer equipped with HP's MS™-DOS/UV-VIS software. To be certain that changes in substrate spectra were not due to pH variations, the effects of pH on the visible absorption of each compound were also assayed within physiological pH range in the culture media. […] Thus, the spectrophotometric assays for the dyes were typically carried out at their isobestic points. For instance, the spectrophotometric assays were carried out at 450 nm for azo dye 1 and 400 nm for azo dye 2. […] The compounds were quantified by first developing standard curves of absorbance versus concentrations (0-50 μg) and then comparing measured absorbance values to the standard curves.

soil microflora = test: Degradation of azo dyes by soil microflora; type: cell-based; conditions: water from a soil sample; for Dye mineralized by soil microflora: 14CO2 trapped; for Dye transformed by soil microflora: carbon source, air flow
Protocol: The degradation of azo dyes by soil microflora in general was evaluated by forming a mixture of azo dyes 33 and 34 with water from a soil sample. The soil sample contained soil microflora that had not adapted to using azo dyes as substrates. A carbon source was added to the mixture and a continuous air flow through the mixture was maintained. The ^14 CO2 released by the mixture was trapped using a 1N NaOH.

[4] = target: T1, horseradish peroxidase type II (Armoracia rusticana, UniProt P00433); test: Oxidation of azo dyes by horseradish peroxidase preparation; type: biochemical; conditions: pH 8, 37° C., H2O2
T1 sequence (P00433 31-338): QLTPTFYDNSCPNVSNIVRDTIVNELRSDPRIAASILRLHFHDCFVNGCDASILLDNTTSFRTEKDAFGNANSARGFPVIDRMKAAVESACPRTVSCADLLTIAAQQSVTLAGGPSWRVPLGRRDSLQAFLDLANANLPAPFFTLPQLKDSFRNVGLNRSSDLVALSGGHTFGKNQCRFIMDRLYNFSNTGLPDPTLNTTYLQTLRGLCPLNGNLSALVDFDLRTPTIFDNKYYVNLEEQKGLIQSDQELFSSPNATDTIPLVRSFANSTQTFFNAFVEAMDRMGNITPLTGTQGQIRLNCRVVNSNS
Protocol: The reaction was started with the addition of 100 μl of 50 mM H2 O2 and was followed for 1 min at 37° C. Controls were run with no addition of H2 O2 or with the addition of the hemeperoxidase inhibitor KCN (final concentration 25 μM).

Mn(II)-peroxidase [5] = test: Oxidation of dyes by P. chrysosporium Mn(II)-peroxidase; type: biochemical, Phanerochaete chrysosporium; conditions: crude enzyme, conditions specific for Mn(II)-peroxidase
[6] = test system: S. chromofuscus A11 extracellular peroxidase; test: Oxidation of azo dyes by S. chromofuscus A11 crude enzyme preparation; type: biochemical, Streptomyces chromofuscus A11; conditions: pH 8, 37° C., H2O2
Method in brief: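 Enzyme from 48 h S. chromofuscus A11 culture supernatant, concentrated, ammonium sulfate-precipitated, dialyzed in 20 mM HEPES pH 8; yellow Sephadex G-25 fraction used. Reaction started with 100 μl 50 mM H2O2, followed 1 min at 37° C; controls without H2O2 or with 25 μM KCN.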

[7] = p. chrysosporium culture, 168 h

O=S(=O)(O)c1ccc(N=Nc2c(O)ccc3ccccc23)cc1 [Azo dye 31, 4-(2-hydroxy-1-naphthylazo)benzenesulfonic acid]
Decolorization by Streptomyces spp. (Streptomyces spp.): not

Nc1ccc(S(=O)(=O)O)cc1 [Sulfanilic acid, 4-Amino-[U-^14 C]benzenesulfonic acid]
Percent substrate removed, P. chrysosporium [1, 7]: 68% | Percentage of radioactivity recovered in CO2, Streptomyces chromofuscus [2]: 0.0% | Percentage of radioactivity recovered in biomass (cells), Streptomyces chromofuscus [2]: 0.0% | Percentage of radioactivity removed from the medium, Streptomyces chromofuscus [2]: 0.0% | Oxidation by manganese peroxidase (Mn(II)-peroxidase [3]): not detected | Oxidation / decolorization by ligninase (ligninase): transformed slowly | Percentage of radioactivity recovered in biomass (cells), P. chrysosporium (P. chrysosporium): 1.3% | Percentage of radioactivity removed from the medium, P. chrysosporium (P. chrysosporium): 25.0% | Percentage of radioactivity recovered in CO2, P. chrysosporium (P. chrysosporium; listed as Sulfanilic Acid): 17.2% | Percentage of radioactivity recovered in CO2, P. chrysosporium (P. chrysosporium; listed as sulfanilic acid): 17% | Start of mineralization in the fungal culture (P. chrysosporium; P. chrysosporium): tenth day

COc1cc(N=Nc2ccc(S(=O)(=O)O)cc2)ccc1O [Azo dye 2, 3-methoxy-4-hydroxy-azobenzene-4'-sulfonic acid]
Percent substrate removed, P. chrysosporium ([1]; growth period 7 days): 94% | Percent substrate removed, S. chromofuscus A11 (S. chromofuscus A11): 89% | Percent substrate removed, S. viridosporus T7A (S. viridosporus T7A): 9% | Percent substrate removed, S. rochei A14 (S. rochei A14): 72% | Percent substrate removed, S. diastaticus A12 (S. diastaticus A12): 30% | Percent substrate removed, S. rochei A10 (S. rochei A10): 74% | Percent substrate removed, S. diastaticus A13 (S. diastaticus A13): 21% | Percent substrate removed, S. badius 252 (S. badius 252): 18% | Percent substrate removed, S. chromofuscus A20 (S. chromofuscus A20): 11%

COc1cc(N=Nc2ccc(N=Nc3ccc(S(=O)(=O)O)cc3)cc2S(=O)(=O)O)ccc1O [Azo dye 1, 4-(3-methoxy-4-hydroxyphenylazo)-azobenzene-3,4'-disulfonic acid]
Percent substrate removed, P. chrysosporium ([1]; growth period 7 days): 93% | Percent substrate removed, S. chromofuscus A11 (S. chromofuscus A11): 56% | Percent substrate removed, S. viridosporus T7A (S. viridosporus T7A): 1% | Percent substrate removed, S. rochei A14 (S. rochei A14): 43% | Percent substrate removed, S. diastaticus A12 (S. diastaticus A12): 27% | Percent substrate removed, S. rochei A10 (S. rochei A10): 51% | Percent substrate removed, S. diastaticus A13 (S. diastaticus A13): 15% | Percent substrate removed, S. badius 252 (S. badius 252): 9% | Percent substrate removed, S. chromofuscus A20 (S. chromofuscus A20): 1%

Nc1ccc(N=N[14c]2[14cH][14cH][14c](S(=O)(=O)O)[14cH][14cH]2)cc1S(=O)(=O)O [compound 33]
Dye mineralized by soil microflora (soil microflora): 1.1% | Dye transformed by soil microflora (soil microflora): 3.4%

Nc1ccc(N=Nc2ccc(S(=O)(=O)O)cc2)cc1S(=O)(=O)O [Azo dye 18, 4-amino-1,1'-azobenzene-3,4'-disulfonic acid]
Percent substrate removed, P. chrysosporium [1, 7]: 79% | Percentage of radioactivity recovered in CO2, Streptomyces chromofuscus [2]: 0.0% | Percentage of radioactivity recovered in biomass (cells), Streptomyces chromofuscus [2]: 0.0% | Percentage of radioactivity removed from the medium, Streptomyces chromofuscus [2]: 0.0% | Oxidation by manganese peroxidase (Mn(II)-peroxidase [3]): not detected | Amount of dye decolorized by ligninase (ligninase; out of 10 micrograms, 15 minutes, pH3, 0.6 units of enzyme): about 3 micrograms | Percentage of radioactivity recovered in CO2, P. chrysosporium (P. chrysosporium): 26.9% | Percentage of radioactivity recovered in biomass (cells), P. chrysosporium (P. chrysosporium): 2.3% | Percentage of radioactivity removed from the medium, P. chrysosporium (P. chrysosporium): 33.0%

COc1cc(N=Nc2ccc(N=Nc3ccc(S(=O)(=O)O)cc3)cc2S(=O)(=O)O)ccc1O [compound 1]
Oxidation rate of azo dyes, Horseradish peroxidase [4]: 8.24 μmoles per minute per ml | Degradation by Phanerochaete fungus ([1]; growth period of seven days, starting dye 150-200 ppm (FIG. 3), 10080 min): 90% | % Decolorization, P. chrysosporium ([1]; initial concn 150 ppm): 99% | % Decolorization, P. chrysosporium ([1]; initial concn 300 ppm): 62% | Oxidation rate of azo dyes, P. chrysosporium Mn-peroxidase (Mn(II)-peroxidase [5]): 3.06 μmoles per minute per ml | Oxidation rate of azo dyes, S. chromofuscus peroxidase [6]: 1.78 μmoles per minute per ml | Degradation by manganese peroxidase (HPLC, words) (Mn(II)-peroxidase [3]; one hour incubation): almost completely degraded | Oxidation rate of azo dyes, P. chrysosporium Ligninase (ligninase; crude enzyme, conditions specific for ligninase): 0.44 μmoles per minute per ml | Oxidation / decolorization by ligninase (ligninase): not detected

COc1cc(N=N[14c]2[14cH][14cH][14c](S(=O)(=O)O)[14cH][14cH]2)ccc1O [compound 34]
Dye mineralized by soil microflora (soil microflora): 14% | Dye transformed by soil microflora (soil microflora): 46% | Mineralization by the streptomycetes ([2]; 21-day incubation): mineralized | Radioactivity accounted for by dye absorbed by the cells ([2]; 21 days growth of S. chromofuscus): 9% | Percentage of radioactivity recovered in CO2, Streptomyces chromofuscus [2]: ~4% | Percentage of radioactivity recovered in biomass (cells), Streptomyces chromofuscus [2]: 4.6% | Percentage of radioactivity recovered in CO2, P. chrysosporium (P. chrysosporium): 25.7% | Percentage of radioactivity recovered in biomass (cells), P. chrysosporium (P. chrysosporium): 5.2% | Percentage of radioactivity removed from the medium, P. chrysosporium (P. chrysosporium): 31.7% | Mineralization rate relative to dyes 33 and 35 (P. chrysosporium; first 10 days of incubation): twice as fast

O=S(=O)(O)c1ccc2c(N=Nc3ccccc3)c(O)ccc2c1 [Azo dye 19, 1-phenylazo-2-hydroxynaphthalene-6-sulfonic acid]
Decolorization by Streptomyces spp. (Streptomyces spp.): not
